The subject of experiment [1] is mice trained to discriminate cocaine (10 mg/kg) from saline. In words: Cocaine discrimination procedure. The format is in vivo, mouse. The note with it: for substitution for the discriminative-stimulus effects of cocaine: pretreatment time 60 min.
Experiment [2] deals with T1, hDAT WT (Homo sapiens, UniProt Q01959). In words: [3H]DA uptake inhibition in COS-7 cells transiently expressing hDAT WT. The format is cell-based.
Experiment [3] addresses hDAT Y335A (Homo sapiens, UniProt Q01959, Y335A). In words: [3H]DA uptake inhibition in COS-7 cells expressing hDAT Y335A mutant. The format is cell-based.
Experiment [4] relates to extracellular DA concentrations in the mouse NAc shell. Description: Microdialysis of extracellular DA in the NAc shell. The format is in vivo.
Experiment [5] relates to DAT. The conditions noted are these: rat brain tissue; cited from earlier work.
Experiment [6] addresses T2, NET (Homo sapiens, UniProt P23975). In words: [3H]nisoxetine binding at the NET.
For experiment [7], the target named is T1, hDAT WT. Description: [3H]WIN 35,428 binding in COS-7 cells transiently expressing hDAT WT. The note with it: R- versus S-modafinil.
The target in experiment [8] is T2, NET. Description: [3H]DA uptake inhibition at the NET. The format is cell-based.

Here are results for 5 compounds from paper PMC3413742 (Biological psychiatry, 2012).

T2 sequence (P23975 whole entry): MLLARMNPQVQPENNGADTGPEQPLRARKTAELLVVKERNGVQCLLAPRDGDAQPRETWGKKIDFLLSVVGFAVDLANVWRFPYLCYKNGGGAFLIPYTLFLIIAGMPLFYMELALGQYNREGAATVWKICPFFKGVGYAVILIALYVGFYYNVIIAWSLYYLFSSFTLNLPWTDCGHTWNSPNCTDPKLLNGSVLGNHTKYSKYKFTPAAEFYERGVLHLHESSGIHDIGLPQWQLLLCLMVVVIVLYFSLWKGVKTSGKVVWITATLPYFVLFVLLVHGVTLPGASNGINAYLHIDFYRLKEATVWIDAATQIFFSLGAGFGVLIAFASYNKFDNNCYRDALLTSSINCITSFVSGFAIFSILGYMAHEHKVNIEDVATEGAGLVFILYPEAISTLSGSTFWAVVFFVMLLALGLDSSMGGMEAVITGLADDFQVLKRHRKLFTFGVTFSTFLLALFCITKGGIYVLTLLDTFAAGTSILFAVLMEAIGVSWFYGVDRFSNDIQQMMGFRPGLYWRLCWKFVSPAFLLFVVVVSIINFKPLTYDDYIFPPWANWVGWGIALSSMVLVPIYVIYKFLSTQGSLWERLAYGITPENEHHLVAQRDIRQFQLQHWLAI
T1 sequence (Q01959 whole entry): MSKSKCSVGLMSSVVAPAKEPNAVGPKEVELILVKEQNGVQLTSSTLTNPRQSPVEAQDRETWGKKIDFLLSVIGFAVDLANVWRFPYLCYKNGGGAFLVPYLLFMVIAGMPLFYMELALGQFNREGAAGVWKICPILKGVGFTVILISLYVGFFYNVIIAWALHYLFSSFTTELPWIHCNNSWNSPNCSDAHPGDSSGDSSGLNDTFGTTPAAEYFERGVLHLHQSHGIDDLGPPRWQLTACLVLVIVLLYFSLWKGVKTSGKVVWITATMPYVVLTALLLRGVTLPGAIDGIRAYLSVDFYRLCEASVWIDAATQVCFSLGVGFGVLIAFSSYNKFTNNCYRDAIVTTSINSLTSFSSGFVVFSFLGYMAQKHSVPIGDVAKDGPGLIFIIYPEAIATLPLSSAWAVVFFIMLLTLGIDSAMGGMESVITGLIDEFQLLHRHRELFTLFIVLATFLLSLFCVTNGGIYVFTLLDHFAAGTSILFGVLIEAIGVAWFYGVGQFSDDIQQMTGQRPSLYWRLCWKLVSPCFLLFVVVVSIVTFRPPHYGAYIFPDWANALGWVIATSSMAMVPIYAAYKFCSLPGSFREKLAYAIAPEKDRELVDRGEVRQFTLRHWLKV
Chain of hDAT Y335A (Q01959 whole entry Y335A): as the sequence (Q01959 whole entry) above, with Y335A counted along it

`NC(=O)C[S+]([O-])C(c1ccccc1)c1ccccc1` (racemic) [(±)-modafinil]: the “substitution for the discriminative-stimulus effects of cocaine” value (from here on “substitution … of cocaine”) in experiment [1] is recorded as “fully substituted for cocaine”. Further, the “[3H]DA uptake inhibition potency lower than observed for DA” value in experiment [2] is given as “more than 7 fold”.

On to `CCCCN1[C@@H]2CC[C@H]1CC(OC(c1ccc(F)cc1)c1ccc(F)cc1)C2` (stereo partly shown) [JHW 007], for which the “Y335A:WT IC50 ratio for [3H]DA uptake inhibition” value in experiment [3] is given as ~ 20 fold.

With `NC(=O)C[S@@+]([O-])C(c1ccccc1)c1ccccc1` [R-modafinil, R-(−)-modafinil], in experiment [4] (30, 100, 300 mg/kg i.p.), the “extracellular DA levels, stimulation as % of DA basal levels” value is given as “approximately 300 % of DA basal levels” and the “time after injection at which DA stimulation was reached” value is 40 to 60 min. In addition, in experiment [5], the “higher affinity for the DAT than the S-enantiomer” value is recorded as ~ 3 fold. For the same compound, in experiment [6], the IC50 – broadly, the midpoint of a concentration-inhibition curve – is above 100 µM. Also, the “higher affinity for DAT than the S-enantiomer” value in experiment [7] was ~ 3 fold. The “substitution … of cocaine” value in experiment [1] is listed as “fully substituted for cocaine”. In addition, the IC50 in experiment [8] is above 100 µM.

As for `NC(=O)C[S@+]([O-])C(c1ccccc1)c1ccccc1` [S-modafinil, S-(+)-modafinil], the IC50 in experiment [6] (read-out: IC50, inhibition of [3H]nisoxetine binding at the NET, N=3, data not shown) was above 100 µM; in experiment [8] (read-out: IC50, inhibition of [3H]DA uptake at the NET, N=3, data not shown), above 100 µM. For the same compound, in experiment [1] (cocaine 5 min, modafinils 60 min before testing), the “ED50 Value, substitution for cocaine (95% confidence limits)” value is 89.0 (64.0 – 115) μmol/kg. Besides, in experiment [1], the “substitution … of cocaine” value was “fully substituted for cocaine”.

In the case of `COC(=O)[C@H]1[C@@H](OC(=O)c2ccccc2)C[C@@H]2CC[C@H]1N2C` [cocaine], in experiment [4] (10 – 55 mg/kg), the “extracellular DA levels, maximum as % of basal levels” value is recorded as “approximately 700 % of basal levels” and the “time after injection of maximum DA” value is on record as ~ 30 min.
